No end group written: not given here.
Assays:
[1] = system: collagenase (Clostridiopeptidase A); test: Protease activation of nanoparticles (TAMRA dequenching), collagenase; format: biochemical; conditions: 25 μM; collagenase 20 μg/ml
Recombinant MMP-2 = molecular target: T1, Recombinant MMP-2 (Homo sapiens, UniProt P08253); test: Protease activation of nanoparticles (TAMRA dequenching), MMP-2; conditions: 25 μM; MMP-2 2.5 μg/ml
T1 sequence (P08253 110-660): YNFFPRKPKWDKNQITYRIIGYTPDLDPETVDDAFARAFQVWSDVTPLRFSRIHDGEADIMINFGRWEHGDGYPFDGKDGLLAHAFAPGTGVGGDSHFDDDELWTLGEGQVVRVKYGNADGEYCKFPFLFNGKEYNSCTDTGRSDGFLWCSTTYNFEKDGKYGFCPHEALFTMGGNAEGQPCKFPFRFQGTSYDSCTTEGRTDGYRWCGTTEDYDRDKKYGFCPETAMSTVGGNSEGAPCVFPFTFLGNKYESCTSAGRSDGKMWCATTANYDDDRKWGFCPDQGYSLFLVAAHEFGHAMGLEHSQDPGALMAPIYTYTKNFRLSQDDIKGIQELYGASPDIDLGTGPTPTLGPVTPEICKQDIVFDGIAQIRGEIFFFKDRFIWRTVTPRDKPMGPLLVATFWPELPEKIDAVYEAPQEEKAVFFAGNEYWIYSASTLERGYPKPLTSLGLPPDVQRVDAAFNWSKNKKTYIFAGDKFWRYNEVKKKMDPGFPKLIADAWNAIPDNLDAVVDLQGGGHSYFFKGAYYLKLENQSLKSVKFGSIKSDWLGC
Description: Activation was monitored by the release of TAMRA quenching at an excitation of 515 nm and emission of 580 nm.

[2] = molecular target: Nucleolin on the surface of HeLa cells (UniProt P19338); test: cell-based or functional assay
Chain of Nucleolin on the surface of HeLa cells (P19338 2-710 limits assumed): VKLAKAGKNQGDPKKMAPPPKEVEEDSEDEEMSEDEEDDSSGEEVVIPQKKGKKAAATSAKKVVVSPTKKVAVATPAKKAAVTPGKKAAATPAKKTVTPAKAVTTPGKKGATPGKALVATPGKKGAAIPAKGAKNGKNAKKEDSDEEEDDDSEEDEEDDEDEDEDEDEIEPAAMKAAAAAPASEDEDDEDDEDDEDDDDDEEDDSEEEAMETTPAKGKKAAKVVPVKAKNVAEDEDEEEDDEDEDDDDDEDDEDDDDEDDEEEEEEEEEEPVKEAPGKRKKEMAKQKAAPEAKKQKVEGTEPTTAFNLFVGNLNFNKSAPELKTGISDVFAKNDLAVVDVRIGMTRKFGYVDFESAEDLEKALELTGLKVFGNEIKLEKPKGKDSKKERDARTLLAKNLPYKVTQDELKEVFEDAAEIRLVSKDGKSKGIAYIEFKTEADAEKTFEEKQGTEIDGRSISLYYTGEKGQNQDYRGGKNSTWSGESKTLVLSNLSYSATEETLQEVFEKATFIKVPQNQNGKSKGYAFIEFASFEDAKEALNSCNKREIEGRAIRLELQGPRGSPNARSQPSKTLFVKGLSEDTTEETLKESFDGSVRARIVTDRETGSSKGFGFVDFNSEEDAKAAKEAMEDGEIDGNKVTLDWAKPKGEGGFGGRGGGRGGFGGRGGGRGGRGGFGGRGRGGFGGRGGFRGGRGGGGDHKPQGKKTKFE

HeLa cells = test: QD internalization in HeLa cell monolayers, flow cytometry (Example 8); format: cell-based; conditions: free peptide 1 μM to 1 mM added with 50 nM F3-QDs
Description: After four hours, cells were washed with media, treated with trypsin (0.25%) and EDTA, and resuspended in 1% BSA (in PBS) for flow cytometry (BD FACSort, FL1 for EGFP signal and FL3 for QD signal). Fluorescence data on 10,000 cells were collected for each sample and the geometric mean of intensity was reported.

[3] = system: Peptide-PEG (MMP-2 cleavable L-AA substrate coupled to 10 kDa PEG) immobilized on dextran-coated iron oxide nanoparticles
[4] = system: Free MMP-2 cleavable peptide substrate NH2-G-K(TAMRA)-G-P-L-G-V-R-G-C-CONH2
Glioblastoma cells = test: Photoactivation of endosomal escape in glioblastoma cells; format: cell-based
Description: Fluorescein labeled CAR peptide ([…]) was synthesized using an ABI Model 433A peptide synthesizer from Biopolymers Laboratory, the MIT Center for Cancer Research. The peptide was cyclized by bubbling air into an aqueous solution of the peptide at 0.1 mg/ml overnight. Complete cyclization was confirmed by mass spectrometry and HPLC analysis.
Glioblastoma cells were obtained from the laboratory of Phil Sharp (MIT). The cyclized peptide (cCAR) was incubated with cells for 2 hours at 37° C. in complete culture medium (DMEM supplemented with serum, streptomycin, penicillin and fungizone). A monolayer of the cells was then rinsed with warm media three times. Microscopy photographs were taken after overnight incubation of the cells. For activation of photosensitizer, Arc lamp light from a microscope was irradiated onto the cells for two minutes.

CNC(=O)[C@H](Cc1c[nH]c2ccccc12)NC(=O)[C@@H](CC(=O)NO)CC(C)C [Galardin]
inhibition of nanoparticle activation (peptide-PEG cleavage) [1]: inhibits activation | inhibition of nanoparticle activation (peptide-PEG cleavage) (Recombinant MMP-2): inhibits activation

F3-QD (F3 peptide C[Ahx]… conjugated to PEG-amino quantum dots)
QD uptake by HeLa cells (flow cytometry) (orders of magnitude) [2]: 2

Lys-Ala-Arg-Glu-Cys (KAREC; printed: Lys-Ala-Arg-Glu-Cys) [KAREC peptide]
inhibition of F3-QD uptake by free peptide (HeLa cells): minimal

Recombinant MMP-2
Kcat/Km (cleavage of the substrate by MMP-2 over time, TAMRA dequenching) [3]: 8.42 and 26.7 µM^-1 hr^-1 respectively | fold reduction of MMP-2 Kcat/Km against the free peptide [3]: reduces its associated MMP-2 Kcat/Km within a practical range, 3.2 fold | Kcat/Km (cleavage of the substrate by MMP-2 over time, fluorescamine assay) [4]: 8.42 and 26.7 µM^-1 hr^-1 respectively

cyclic CAR peptide: Fluorescein labeled, cyclized CAR peptide (CARSKNKDC), binds heparan sulfate proteoglycans (also: fluorescein label, position not given here, cyclized, bond type not given here)
internalization into cells (Glioblastoma cells; 2 hours at 37° C., without light irradiation): internalized | endosomal escape upon light irradiation (Glioblastoma cells; Arc lamp light irradiation): distributed evenly inside cells

From patent publication US20080213377A1, “Delivery of Nanoparticles and/or Agents to Cells” (priority 2006, published 2008)
